Experimental data: US20060167115A1, “Compositions for the preservation of timber” (priority 2003, published 2006)
Where “and” joins values, the source holds several entries; their conditions need not be identical. Equal entries are not always repeated. Entries after “also recorded” stand apart in the source; their conditions may differ.

Key:
Coniophora puteana = assay: Biological screening test (modified EN 113), wood block weight loss; type: cell-based; settings: 7 weeks exposure
Procedure: (§1) The following fungi were employed in this test: Coniophora puteana (Brown rot fungus) and Poria placenta (Brown rot fungus). The following preservative was tested: TBBA (in ethanol carrier). Five concentrations of the preservative were used: 2%, 1%, 0.1%, 0.05% and 0.01% (w/w).
(§2) All wood blocks employed in the examples to follow were of Scots pine sapwood (Pinus sylvestris) with a volume of 1 cm^3 (10 mm×10 mm×10 mm). Five replicate test specimens were used for each concentration of the preservative. Six virulence control specimens for each fungus were used to establish the wood decay capability of the fungi. Other test blocks were used to establish: the virulence of the test fungi; the absence of a preserving effect of the ethanol carrier; and weight changes of test blocks for reasons other than decay • Treated test specimens: 2 (fungi)×5 (preservative concentrations)×1 (preservative)×5 (replicates)=50 test blocks • Untreated test specimens (for exposure alongside treated blocks): one for each treated block=50 test blocks • Virulence control specimens: 2 (fungi)×6 (replicates)=12 test blocks • Ethanol carrier test specimens: 2 (fungi)×5 (replicates)=10 test blocks • Treated check test specimens: 1 (preservatives)×5 (concentrations)×5 (replicates)=25
(§3) All timber specimens, where applicable, were treated with preservative (vacuum impregnation) and sterilized (ionizing radiation) prior to test, in accordance with European Standard EN 113. The incubation period for the test (length of block exposure to the chosen basidiomycete fungi) was 48 days or just under 7 weeks.
(§4) Weight changes for particular waterlogged specimens, when these are clearly unrepresentative of a group, are not included in the mean figures presented.
(§5) Tables I and II show weight losses (% of initial dry weight) of TBBA treated and untreated control test specimens after 7 weeks exposure to Coniophora puteana and Poria placenta respectively.
(§6) In the tables, “retention” refers to the quantity of preservative that enters the wood per cubic meter of treated wood. It's value is determined by weighing the block of wood before and after it is treated with preservative, taking the difference between the two weights, and dividing the difference in weight by the volume of the block.

Poria placenta = assay: as above; type: cell-based; settings: 7 weeks exposure
Procedure: as §1, §2, §3, §4, §5, §6

[1] = TBBA 0.01% w/w in ethanol carrier, retention 0.1 kg/m^3
[2] = TBBA 0.05% w/w in ethanol carrier, retention 0.4 kg/m^3
[3] = TBBA 0.1% w/w in ethanol carrier, retention 0.7 kg/m^3

CC(C)(c1cc(Br)c(O)c(Br)c1)c1cc(Br)c(O)c(Br)c1 [TBBA, Tetrabromobisphenol A] was tested, and the “Corrected mean loss in mass (%)” value (Coniophora puteana; [1]) was 39.71(2.2) (4) %, the “Corrected mean loss in mass (%)” value (Coniophora puteana; [2]) was 40.63 (7.59) (5) % and the “Corrected mean loss in mass (%)” value (Coniophora puteana; [3]) was 24.80 (—) (1) %. The “Corrected mean loss in mass (%)” value (Coniophora puteana; TBBA 1% w/w in ethanol carrier, retention 6.7 kg/m^3) was 2.39% and 2.39 (1.56) (5) %, the “Corrected mean loss in mass (%)” value (Coniophora puteana; TBBA 2% w/w in ethanol carrier, retention 14.1 kg/m^3) was “no weight loss; also recorded: No mass loss” and the “Corrected mean loss in mass (%)” value (Poria placenta; [1]) was 0.88 (0.29) (5) %. For the same compound, the “Corrected mean loss in mass (%)” value (Poria placenta; [2]) was 4.84 (0.32) (5) %, the “Corrected mean loss in mass (%)” value (Poria placenta; [3]) was 26.67% and 26.67(11.04) % and the “Corrected mean loss in mass (%)” value (Poria placenta; TBBA 1% w/w in ethanol carrier, retention 6.9 kg/m^3) was “no weight loss; also recorded: No mass loss”. For the same compound, the “Corrected mean loss in mass (%)” value (Poria placenta; TBBA 2% w/w in ethanol carrier, retention 14.2 kg/m^3) was “no weight loss”.
